# Measured values reported in patent US20240150360A1 (THE REGENTS OF THE UNIVERSITY OF MICHIGAN, priority 2021, published 2024).
# Read-outs that look alike come from different tables or passages of the source.
# What was measured:
# P300 = target: T1, P300 (Homo sapiens, UniProt Q09472); experiment: P300 degradation in 22Rv1 cells (5 h); format: cell-based; conditions: for Dmax: read-out: P300 Degradation (22Rv1, 5 h) DCmax
# T1 construct: endogenous in cells; host or cells: 22Rv1 (ATCC CRL-2505) human prostate cancer cells
# Excerpt: (§1) Biological Assays. […] Cells with 3-8 passages after purchase were used in experiments.
# HL60 = experiment: Cell growth inhibition in HL60; format: cell-based; conditions: Homo sapiens, HL-60, HL60 cells; read-out: Cell Growth Inhibition (IC50) HL60
# 22Rv1 cells = experiment: Cell growth inhibition assay (CellTiter-Glo) in 22Rv1; format: cell-based, human; conditions: Homo sapiens, 22Rv1 cells, 96 h incubation, read-out: Cell Growth Inhibition (IC50) 22Rv1
# Procedure, shortened: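 22Rv1 prostate cancer cells (passages 3-8, DMEM with 10% FBS) were seeded at 4000 cells/well with compound, 3-fold dilutions from 10 μM final. After 96 h at 37° C and 5% CO2, growth was read by CellTiter-Glo 2.0 luminescence.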
# CBP = target: T2, CBP (Homo sapiens, UniProt Q92793); experiment: CBP degradation in 22Rv1 cells (5 h); format: cell-based; conditions: for Dmax: 22Rv1, 5 h, read-out: CBP Degradation (22Rv1, 5 h) DCmax
# T2 construct: endogenous in cells; host or cells: 22Rv1 (ATCC CRL-2505) human prostate cancer cells
# Excerpt: as §1
# T1 sequence (Q09472 whole entry): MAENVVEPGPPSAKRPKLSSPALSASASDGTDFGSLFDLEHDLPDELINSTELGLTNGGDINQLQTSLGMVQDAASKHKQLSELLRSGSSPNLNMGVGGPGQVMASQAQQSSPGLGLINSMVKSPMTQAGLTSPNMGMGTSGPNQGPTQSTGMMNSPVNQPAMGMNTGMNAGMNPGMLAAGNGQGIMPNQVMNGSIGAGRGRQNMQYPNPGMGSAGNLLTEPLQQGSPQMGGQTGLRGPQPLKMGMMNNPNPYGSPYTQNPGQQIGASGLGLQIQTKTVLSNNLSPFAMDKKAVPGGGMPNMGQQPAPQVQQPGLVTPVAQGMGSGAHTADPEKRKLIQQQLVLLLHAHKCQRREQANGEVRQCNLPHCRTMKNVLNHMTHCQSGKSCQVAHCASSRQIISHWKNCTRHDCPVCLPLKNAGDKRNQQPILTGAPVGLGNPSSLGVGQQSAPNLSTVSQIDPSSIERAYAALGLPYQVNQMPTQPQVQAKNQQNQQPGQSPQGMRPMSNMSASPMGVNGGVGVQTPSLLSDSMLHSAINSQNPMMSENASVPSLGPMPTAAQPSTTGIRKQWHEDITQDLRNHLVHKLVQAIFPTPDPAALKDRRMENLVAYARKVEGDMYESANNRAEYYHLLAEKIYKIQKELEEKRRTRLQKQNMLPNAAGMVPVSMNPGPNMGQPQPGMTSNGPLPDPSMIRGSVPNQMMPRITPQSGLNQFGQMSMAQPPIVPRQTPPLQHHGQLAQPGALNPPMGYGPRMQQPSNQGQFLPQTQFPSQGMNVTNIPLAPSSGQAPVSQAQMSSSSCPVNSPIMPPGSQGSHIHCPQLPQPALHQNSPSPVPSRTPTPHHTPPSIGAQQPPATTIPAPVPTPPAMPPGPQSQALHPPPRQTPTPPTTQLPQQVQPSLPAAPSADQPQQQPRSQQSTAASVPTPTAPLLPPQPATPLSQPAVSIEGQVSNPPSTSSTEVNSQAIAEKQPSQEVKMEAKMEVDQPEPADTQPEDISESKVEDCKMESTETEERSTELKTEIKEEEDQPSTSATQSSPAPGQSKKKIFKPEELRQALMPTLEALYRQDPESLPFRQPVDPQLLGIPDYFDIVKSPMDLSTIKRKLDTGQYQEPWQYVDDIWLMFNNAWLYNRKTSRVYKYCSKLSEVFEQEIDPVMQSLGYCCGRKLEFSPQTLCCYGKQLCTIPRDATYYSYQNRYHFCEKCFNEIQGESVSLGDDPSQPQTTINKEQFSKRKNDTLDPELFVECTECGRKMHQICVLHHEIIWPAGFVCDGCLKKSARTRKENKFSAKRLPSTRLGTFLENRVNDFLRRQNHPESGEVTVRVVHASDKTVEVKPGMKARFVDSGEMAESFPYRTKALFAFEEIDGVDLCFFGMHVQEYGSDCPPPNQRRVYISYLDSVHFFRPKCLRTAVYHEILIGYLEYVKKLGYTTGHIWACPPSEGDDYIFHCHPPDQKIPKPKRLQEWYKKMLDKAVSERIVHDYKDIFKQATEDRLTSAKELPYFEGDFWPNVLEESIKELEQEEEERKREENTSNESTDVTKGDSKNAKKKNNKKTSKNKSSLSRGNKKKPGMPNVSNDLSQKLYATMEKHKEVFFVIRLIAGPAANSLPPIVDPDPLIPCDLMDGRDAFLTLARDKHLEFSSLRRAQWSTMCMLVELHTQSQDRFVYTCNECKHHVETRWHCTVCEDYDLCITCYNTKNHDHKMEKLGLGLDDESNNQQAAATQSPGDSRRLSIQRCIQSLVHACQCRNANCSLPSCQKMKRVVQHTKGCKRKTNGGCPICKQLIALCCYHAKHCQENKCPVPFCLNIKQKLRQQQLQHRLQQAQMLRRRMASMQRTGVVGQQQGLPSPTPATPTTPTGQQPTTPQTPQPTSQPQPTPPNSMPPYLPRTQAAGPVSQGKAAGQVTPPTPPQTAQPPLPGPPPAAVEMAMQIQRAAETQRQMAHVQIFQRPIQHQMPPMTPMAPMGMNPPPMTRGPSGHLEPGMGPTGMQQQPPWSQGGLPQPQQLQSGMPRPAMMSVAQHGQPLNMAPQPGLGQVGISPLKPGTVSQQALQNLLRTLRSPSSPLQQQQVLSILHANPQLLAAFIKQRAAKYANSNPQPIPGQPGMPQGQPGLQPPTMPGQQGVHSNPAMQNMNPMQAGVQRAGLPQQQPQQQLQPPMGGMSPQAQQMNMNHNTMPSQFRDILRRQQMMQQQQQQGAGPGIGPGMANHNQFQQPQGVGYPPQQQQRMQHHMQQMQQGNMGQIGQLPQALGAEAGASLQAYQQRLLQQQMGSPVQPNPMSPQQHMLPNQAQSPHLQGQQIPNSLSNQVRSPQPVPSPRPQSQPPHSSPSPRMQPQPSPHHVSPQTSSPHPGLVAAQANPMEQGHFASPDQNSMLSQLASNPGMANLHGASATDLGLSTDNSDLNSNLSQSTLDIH
# T2 sequence (Q92793 whole entry): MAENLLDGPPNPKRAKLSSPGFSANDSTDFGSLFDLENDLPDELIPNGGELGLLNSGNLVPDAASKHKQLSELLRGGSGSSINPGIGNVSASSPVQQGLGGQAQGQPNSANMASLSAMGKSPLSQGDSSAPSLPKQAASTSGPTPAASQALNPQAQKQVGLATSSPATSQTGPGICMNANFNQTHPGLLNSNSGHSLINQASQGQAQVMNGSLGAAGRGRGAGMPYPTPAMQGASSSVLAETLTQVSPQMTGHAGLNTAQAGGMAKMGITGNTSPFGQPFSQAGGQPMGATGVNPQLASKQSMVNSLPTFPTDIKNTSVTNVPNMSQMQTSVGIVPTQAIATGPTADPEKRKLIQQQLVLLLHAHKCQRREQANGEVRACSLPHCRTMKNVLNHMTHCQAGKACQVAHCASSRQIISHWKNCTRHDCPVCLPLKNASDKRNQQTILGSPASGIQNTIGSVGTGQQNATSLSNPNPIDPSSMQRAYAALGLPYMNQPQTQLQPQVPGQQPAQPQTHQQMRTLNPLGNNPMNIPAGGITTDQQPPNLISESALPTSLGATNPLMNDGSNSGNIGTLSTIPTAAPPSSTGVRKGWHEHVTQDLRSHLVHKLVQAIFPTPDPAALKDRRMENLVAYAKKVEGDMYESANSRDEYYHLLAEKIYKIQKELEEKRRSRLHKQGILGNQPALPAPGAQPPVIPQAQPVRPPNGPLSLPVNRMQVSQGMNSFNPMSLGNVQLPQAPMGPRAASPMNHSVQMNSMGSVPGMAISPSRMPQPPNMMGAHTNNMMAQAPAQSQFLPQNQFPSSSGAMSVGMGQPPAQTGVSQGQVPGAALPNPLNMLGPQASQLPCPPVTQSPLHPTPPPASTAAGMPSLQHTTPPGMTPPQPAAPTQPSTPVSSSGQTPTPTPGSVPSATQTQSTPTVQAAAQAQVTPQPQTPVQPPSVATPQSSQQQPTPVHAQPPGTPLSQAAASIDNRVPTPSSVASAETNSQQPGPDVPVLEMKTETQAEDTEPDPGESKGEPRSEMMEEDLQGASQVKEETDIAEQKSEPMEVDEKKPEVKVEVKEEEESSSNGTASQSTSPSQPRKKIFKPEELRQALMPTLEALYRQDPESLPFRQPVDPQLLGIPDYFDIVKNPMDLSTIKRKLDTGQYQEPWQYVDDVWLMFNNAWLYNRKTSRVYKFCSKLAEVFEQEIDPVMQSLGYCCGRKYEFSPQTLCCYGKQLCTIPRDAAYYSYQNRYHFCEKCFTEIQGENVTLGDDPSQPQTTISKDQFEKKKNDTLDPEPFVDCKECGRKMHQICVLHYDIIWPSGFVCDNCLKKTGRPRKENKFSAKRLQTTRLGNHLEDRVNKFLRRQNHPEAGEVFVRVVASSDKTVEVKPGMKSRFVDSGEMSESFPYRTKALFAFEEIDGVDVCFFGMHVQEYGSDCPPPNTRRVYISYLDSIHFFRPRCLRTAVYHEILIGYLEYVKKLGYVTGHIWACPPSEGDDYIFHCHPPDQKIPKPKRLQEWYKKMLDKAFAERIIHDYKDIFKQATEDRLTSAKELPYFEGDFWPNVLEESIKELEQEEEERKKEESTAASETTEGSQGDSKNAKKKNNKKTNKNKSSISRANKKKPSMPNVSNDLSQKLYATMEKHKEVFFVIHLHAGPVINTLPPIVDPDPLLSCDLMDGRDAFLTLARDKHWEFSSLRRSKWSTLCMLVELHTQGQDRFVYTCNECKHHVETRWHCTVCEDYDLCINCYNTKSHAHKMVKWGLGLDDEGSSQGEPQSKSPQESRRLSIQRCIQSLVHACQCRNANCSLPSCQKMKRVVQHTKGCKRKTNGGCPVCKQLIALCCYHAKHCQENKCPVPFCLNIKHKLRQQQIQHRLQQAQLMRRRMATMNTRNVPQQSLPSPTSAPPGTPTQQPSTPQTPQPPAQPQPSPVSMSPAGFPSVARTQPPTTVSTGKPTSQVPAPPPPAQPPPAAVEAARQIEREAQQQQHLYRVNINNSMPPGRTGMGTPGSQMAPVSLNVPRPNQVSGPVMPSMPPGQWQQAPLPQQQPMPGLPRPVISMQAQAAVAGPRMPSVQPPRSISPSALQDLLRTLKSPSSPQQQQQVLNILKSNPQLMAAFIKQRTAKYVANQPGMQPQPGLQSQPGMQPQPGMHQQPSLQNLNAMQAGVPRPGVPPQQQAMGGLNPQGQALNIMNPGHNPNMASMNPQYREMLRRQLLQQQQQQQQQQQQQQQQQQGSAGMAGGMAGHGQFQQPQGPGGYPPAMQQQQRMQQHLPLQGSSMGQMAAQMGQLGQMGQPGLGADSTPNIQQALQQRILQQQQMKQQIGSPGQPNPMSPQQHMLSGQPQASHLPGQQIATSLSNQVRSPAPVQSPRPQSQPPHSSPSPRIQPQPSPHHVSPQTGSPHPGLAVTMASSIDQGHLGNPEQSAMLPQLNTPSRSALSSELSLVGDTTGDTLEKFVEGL
Structure (SMILES),"DC50 (P300; 22Rv1 cells, 5 h) [nM]","Dmax (P300; 22Rv1 cells, 5 h) [%]",IC50 (HL60) [nM],"IC50 (22Rv1 cells; 22Rv1, 96 h) [nM]","Dmax (CBP; 22Rv1 cells, 5 h) [%]","DC50 (CBP; 22Rv1 cells, 5 h) [nM]","Dmax (P300; 22Rv1, 5 h) [%]",IC50 (22Rv1 cells) [nM],Dmax (CBP) [%]
"CC(=O)N1CCc2c(c(N3CCCc4cc(-c5cnn(C)c5)c(C(F)F)cc43)nn2[C@H]2CC[C@H](CN3Cc4cc5c(cc4C3)C(=O)N(C3CCC(=O)NC3=O)C5)CC2)C1 (stereo partly drawn) [CP-048, 3-(6-(((1r,4r)-4-(5-acetyl-3-(7-(difluoromethyl)-6-(1-methyl-1H-pyrazol-4-yl)-3,4-dihydroquinolin-1(2H)-yl)-4,5,6,7-tetrahydro-1H-pyrazolo[4,3-c]pyridin-1-yl)cyclohexyl)methyl)-1-oxo-3,5,6,7-tetrahydropyrrolo[3,4-f]isoindol-2(1H)-yl)piperidine-2,6-dione]",< 10,> 90,< 100,< 100,> 90,< 10,–,–,–
"CC(=O)N1CCc2c(c(N3CCCc4cc(-c5cnn(C)c5)c(C(F)F)cc43)nn2[C@H]2CC[C@H](CN3CCc4cc5c(cc4C3)C(=O)N(C3CCC(=O)NC3=O)C5=O)CC2)C1 (stereo partly drawn) [CP-049, 6-((4-(5-acetyl-3-(7-(difluoromethyl)-6-(1-methyl-1H-pyrazol-4-yl)-3,4-dihydroquinolin-1(2H)-yl)-4,5,6,7-tetrahydro-1H-pyrazolo[4,3-c]pyridin-1-yl)cyclohexyl)methyl)-2-(2,6-dioxopiperidin-3-yl)-5,6,7,8-tetrahydro-1H-pyrrolo[3,4-g]isoquinoline-1,3(2H)-dione]",< 10,> 70,< 100,< 100,> 90,< 10,–,–,–
"CC(=O)N1CCc2c(c(N3CCCc4cc(-c5cnn(C)c5)c(C(F)F)cc43)nn2C2CCC(C(C)CN3Cc4cc5c(cc4C3)C(=O)N(C3CCC(=O)NC3=O)C5=O)CC2)C1 (stereo not drawn) [CP-051, 6-(2-(4-(5-acetyl-3-(7-(difluoromethyl)-6-(1-methyl-1H-pyrazol-4-yl)-3,4-dihydroquinolin-1(2H)-yl)-4,5,6,7-tetrahydro-1H-pyrazolo[4,3-c]pyridin-1-yl)cyclohexyl)propyl)-2-(2,6-dioxopiperidin-3-yl)-6,7-dihydropyrrolo[3,4-f]isoindole-1,3(2H,5H)-dione]",< 10,> 90,< 100,< 100,> 90,< 10,–,–,–
"CC(=O)N1CCc2c(c(N3CCCc4cc(-c5cnn(C)c5)c(C(F)F)cc43)nn2C2CCN(CC3Cc4cc5c(cc4C3)C(=O)N(C3CCC(=O)NC3=O)C5=O)CC2)C1 (stereo not drawn) [CP-052, 6-((4-(5-acetyl-3-(7-(difluoromethyl)-6-(1-methyl-1H-pyrazol-4-yl)-3,4-dihydroquinolin-1(2H)-yl)-4,5,6,7-tetrahydro-1H-pyrazolo[4,3-c]pyridin-1-yl)piperidin-1-yl)methyl)-2-(2,6-dioxopiperidin-3-yl)-6,7-dihydrocyclopenta[f]ioindole-1,3(2H,5H)-dione]",< 10,> 70,< 1000,< 100,> 70,< 10,–,–,–
"Cn1cc(-c2cc3c(cc2C(F)F)N(c2nn(C4CCN(C(=O)CN5Cc6cc7c(cc6C5)C(=O)N(C5CCC(=O)NC5=O)C7=O)CC4)c4c2CN(C(=O)CF)CC4)CCC3)cn1 (stereo not drawn) [CP-053, 6-(2-(4-(3-(7-(difluoromethyl)-6-(1-methyl-1H-pyrazol-4-yl)-3,4-dihydroquinolin-1(2H)-yl)-5-(2-fluoroacetyl)-4,5,6,7-tetrahydro-1H-pyrazolo[4,3-c]pyridin-1-yl)piperidin-1-yl)-2-oxoethyl)-2-(2,6-dioxopiperidin-3-yl)-6,7-dihydropyrrolo[3,4-f]isoindole-1,3(2H,5H)-dione]",< 100,–,< 1000,–,–,< 10,> 50,< 1000,> 70
"Cn1cc(-c2cc3c(cc2C(F)F)N(c2nn(C4CCN(C(=O)CN5Cc6cc7c(cc6C5)C(=O)N(C5CCC(=O)NC5=O)C7=O)CC4)c4c2CN(C(=O)C2CC2)CC4)CCC3)cn1 (stereo not drawn) [CP-054, 6-(2-(4-(5-(cyclopropanecarbonyl)-3-(7-(difluoromethyl)-6-(1-methyl-1H-pyrazol-4-yl)-3,4-dihydroquinolin-1(2H)-yl)-4,5,6,7-tetrahydro-1H-pyrazolo[4,3-c]pyridin-1-yl)piperidin-1-yl)-2-oxoethyl)-2-(2,6-dioxopiperidin-3-yl)-6,7-dihydropyrrolo[3,4-f]isoindole-1,3(2H,5H)-dione]",> 1000,< 50,< 10000,< 10000,< 50,> 1000,–,–,–
"Cn1cc(-c2cc3c(cc2C(F)F)N(c2nn(C4CCN(C(=O)CN5Cc6cc7c(cc6C5)C(=O)N(C5CCC(=O)NC5=O)C7=O)CC4)c4c2CN(C(=O)C(F)F)CC4)CCC3)cn1 (stereo not drawn) [CP-056, 6-(2-(4-(5-(2,2-difluoroacetyl)-3-(7-(difluoromethyl)-6-(1-methyl-1H-pyrazol-4-yl)-3,4-dihydroquinolin-1(2H)-yl)-4,5,6,7-tetrahydro-1H-pyrazolo[4,3-c]pyridin-1-yl)piperidin-1-yl)-2-oxoethyl)-2-(2,6-dioxopiperidin-3-yl)-6,7-dihydropyrrolo[3,4-f]isoindole-1,3(2H,5H)-dione]",> 1000,< 50,< 1000,< 1000,> 50,< 1000,–,–,–

# Now from value to molecule, other results behind:
"DC50 (P300; 22Rv1 cells, 5 h) [nM]","Dmax (P300; 22Rv1 cells, 5 h) [%]",IC50 (HL60) [nM],"IC50 (22Rv1 cells; 22Rv1, 96 h) [nM]","Dmax (CBP; 22Rv1 cells, 5 h) [%]","DC50 (CBP; 22Rv1 cells, 5 h) [nM]",Structure (SMILES),"Dmax (P300; 22Rv1, 5 h) [%]",IC50 (22Rv1 cells) [nM],Dmax (CBP) [%]
> 1000,< 50,> 10000,> 10000,< 50,> 1000,"Cn1cc(-c2cc3c(cc2C(F)F)N(c2nn(C4CCN(C(=O)CN5Cc6cc7c(cc6C5)C(=O)N(C5CCC(=O)NC5=O)C7=O)CC4)c4c2CNCC4)CCC3)cn1 (stereo not drawn) [CP-057, 6-(2-(4-(3-(7-(difluoromethyl)-6-(1-methyl-1H-pyrazol-4-yl)-3,4-dihydroquinolin-1(2H)-yl)-4,5,6,7-tetrahydro-1H-pyrazolo[4,3-c]pyridin-1-yl)piperidin-1-yl)-2-oxoethyl)-2-(2,6-dioxopiperidin-3-yl)-6,7-dihydropyrrolo[3,4-f]isoindole-1,3(2H,5H)-dione]",–,–,–
> 1000,< 50,> 10000,> 10000,< 50,> 1000,"Cn1cc(-c2cc3c(cc2C(F)F)N(c2nn(C4CCN(C(=O)CN5Cc6cc7c(cc6C5)C(=O)N(C5CCC(=O)NC5=O)C7=O)CC4)c4c2CN(CC(F)F)CC4)CCC3)cn1 (stereo not drawn) [CP-058, 6-(2-(4-(5-(2,2-difluoroethyl)-3-(7-(difluoromethyl)-6-(1-methyl-1H-pyrazol-4-yl)-3,4-dihydroquinolin-1(2H)-yl)-4,5,6,7-tetrahydro-1H-pyrazolo[4,3-c]pyridin-1-yl)piperidin-1-yl)-2-oxoethyl)-2-(2,6-dioxopiperidin-3-yl)-6,7-dihydropyrrolo[3,4-f]isoindole-1,3(2H,5H)-dione]",–,–,–
> 1000,< 50,< 10000,> 10000,< 50,> 1000,"Cn1cc(-c2cc3c(cc2C(F)F)N(c2nn(C4CCN(C(=O)CN5Cc6cc7c(cc6C5)C(=O)N(C5CCC(=O)NC5=O)C7=O)CC4)c4c2CN(CC(C)(F)F)CC4)CCC3)cn1 (stereo not drawn) [CP-059, 6-(2-(4-(3-(7-(difluoromethyl)-6-(1-methyl-1H-pyrazol-4-yl)-3,4-dihydroquinolin-1(2H)-yl)-5-(2,2-difluoropropyl)-4,5,6,7-tetrahydro-1H-pyrazolo[4,3-c]pyridin-1-yl)piperidin-1-yl)-2-oxoethyl)-2-(2,6-dioxopiperidin-3-yl)-6,7-dihydropyrrolo[3,4-f]isoindole-1,3(2H,5H)-dione]",–,–,–
> 1000,< 50,> 10000,> 10000,> 50,< 100,"Cc1noc(C)c1-c1ccc2c(c1)nc([C@@H]1CCCC(=O)N1c1ccc(F)c(F)c1)n2C1CCN(C(=O)CN2Cc3cc4c(cc3C2)C(=O)N(C2CCC(=O)NC2=O)C4=O)CC1 (stereo partly drawn) [CP-061, 6-(2-(4-(2-((S)-1-(3,4-difluroophenyl)-6-oxopiperidin-2-yl)-5-(3,5-dimethylisoxazol-4-yl)-1H-benzo[d]imidazol-1-yl)piperidin-1-yl)-2-oxoethyl)-2-(2,6-dioxopiperidin-3-yl)-6,7-dihydropyrrolo[3,4-f]isoindole-1,3(2H,5H)-dione]",–,–,–
< 100,> 50,> 10000,> 10000,< 50,< 1000,"Cc1noc(C)c1-c1ccc2c(c1)nc([C@@H]1CCCC(=O)N1c1ccc(F)c(F)c1)n2C1CCN(C(=O)CN2Cc3cc4c(cc3C2)C(=O)N(C2CCC(=O)NC2=O)C4)CC1 (stereo partly drawn) [CP-062, 3-(6-(2-(4-(2-((S)-1-(3,4-difluorophenyl)-6-oxopiperidin-2-yl)-5-(3,5-dimethylisoxazol-4-yl)-1H-benzo[d]imidazol-1-yl)piperidin-1-yl)-2-oxoethyl)-1-oxo-3,5,6,7-tetrahydropyrrolo[3,4-f]isoindol-2(1H)-yl)piperidine-2,6-dione]",–,–,–
